Measured values: US7863478B2, “UV filters” (Merck Patent GmbH, priority 2004, dated 2011)

Assays:
[1] = UV absorption (UV-VIS spectra in 2-propanol, 1 mg/100 ml); type: physicochemical; set-up: UV absorbance at λmax (1 mg/100 ml): unit not given here; conditions: 1 mg/100 ml; for UV absorbance at λmax (1 mg/100 ml): value in brackets after λmax in the synthesis example
Procedure: FIG. 1: UV absorption spectra of 1-hydroxy-3-[(E)-3-(4-methoxyphenyl)-2-propenoyloxy]-2-oxopropane (Example 1a) and 1-hydroxy-3-(2-cyano-3,3-diphenylacryloyloxy)-2-oxopropane (Example 1b) (in each case measured in 2-propanol at a concentration of 1 mg/100 ml)
FIG. 2: UV absorption spectra of 3-[4-(3-hydroxy-2-oxopropoxymethyl)benzylidene]-4,7,7-trimethylbicyclo[2.2.1]heptan-2-one (Example 9), N-(2,3-dihydroxypropyl)-(E)-3-(4-methoxyphenyl)acrylamide (Example 10a) and N-(2,3-dihydroxypropyl)-N-methyl-(E)-3-(4-methoxyphenyl)acrylamide (Example 10b) (in each case measured in 2-propanol at a concentration of 1 mg/100 ml).

| SMILES | UV-VIS λmax [1] [nm] | UV absorbance at λmax (1 mg/100 ml) [1] | melting point |
| --- | --- | --- | --- |
| N#CC(C(=O)OCC(=O)CO)=C(c1ccccc1)c1ccccc1 [Example 1b, 1-Hydroxy-3-(2-cyano-3,3-diphenylacryloyloxy)-2-oxopropane] | 303.0 | 0.375 | 204 °C (dec.) |
| N#CC(C(=O)OCC(=O)COC(=O)C(C#N)=C(c1ccccc1)c1ccccc1)=C(c1ccccc1)c1ccccc1 [Example 23b, 1,3-Bis-(2-cyano-3,3-diphenylacryloyloxy)-2-oxopropane] | 304.0 | 0.031 | 209 °C |
| COc1ccc(/C=C/C(=O)NCC(O)CO)cc1 (stereo not drawn) [Example 10a, N-(2,3-dihydroxypropyl)-(E)-3-(4-methoxyphenyl)acrylamide] | 298.0 | 0.940 | 104 to 106 °C |
| COc1ccc(/C=C/C(=O)NCC(O)CO[Si](C)(C)C(C)(C)C)cc1 (stereo not drawn) [Example 12, N-[3-(tert-butyldimethylsilyloxy)-2-hydroxypropyl]-(E)-3-(4-methoxyphenyl)acrylamide] | 291.0 | 0.481 | 107 to 109 °C |
| CN(C)c1ccc(C(=O)OCC(=O)CO[Si](C)(C)C(C)(C)C)cc1 [Example 2] | 299.0 | 0.67 | 91 to 92 °C |
| CN(C)c1ccc(C(=O)NCC(O)CO)cc1 (stereo not drawn) [Example 10d, N-(2,3-dihydroxypropyl)-4-dimethylaminobenzamide] | 301.0 | 0.947 | 152 to 153 °C |
